Our source for the Ki values is patent US20040110821A1, “GAL3 receptor antagonists for the treatment of affective disorders” (priority 2002, published 2004).

One assay concerns the target T1, human 5HT1B receptor (Homo sapiens, UniProt P28222).
T1 construct: expressed in transfected cells
In words: Radioligand binding at human 5HT1B receptor. Conditions: read-out: h5HT1B Ki. As for the experimental part: Human 5HT1B, 5HT1D, 5HT1E, 5HT1F, and 5HT7 ReceDtors: The cell lysates of LM(tk-) clonal cell line stably transfected with the genes encoding each of these 5HT receptor-subtypes were prepared as described above. Cell membranes were suspended in 50 mM Tris-HCl buffer (pH 7.4 at 37° C.) containing 10 mM MgCl2, 0.2 mM EDTA, 10 µM pargyline, and 0.1% ascorbate. […] Nonspecific binding was determined in the presence of 10 μM serotonin. The bound radioligand was separated by filtration through GF/B filters using a cell harvester.
(§1) Binding data were analyzed using nonlinear regression and statistical techniques available in the GraphPAD Prism package (San Diego, Calif.). Enzymatic assay data were derived from a standard curve of reference compound data.

In the next assay the target is T2, human GAL1 receptor (Homo sapiens, UniProt P47211).
T2 construct: expressed in transfected cells
T2 sequence (P47211 1-349): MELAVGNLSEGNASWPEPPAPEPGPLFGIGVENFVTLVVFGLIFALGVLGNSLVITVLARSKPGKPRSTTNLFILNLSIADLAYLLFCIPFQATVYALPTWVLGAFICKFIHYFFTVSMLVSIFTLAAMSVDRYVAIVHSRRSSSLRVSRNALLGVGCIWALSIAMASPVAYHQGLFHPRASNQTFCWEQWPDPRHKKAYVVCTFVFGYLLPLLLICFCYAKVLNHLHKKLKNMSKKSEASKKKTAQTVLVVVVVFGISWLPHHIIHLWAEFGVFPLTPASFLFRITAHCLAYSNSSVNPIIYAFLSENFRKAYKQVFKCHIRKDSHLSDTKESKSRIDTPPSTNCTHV
In words: Radioligand binding at cloned human GAL1 receptor. The following applies: indolones, Table 4, read-out: Ki (nM) GalR 1. As for the experimental part:
(§2) The present invention provides for a method of determining the binding affinity of a GAL3 antagonist, wherein the GAL3 antagonist is dissolved in a “suitable solvent”. A “suitable solvent” means one which permits the measurement of binding affinity of the GAL3 antagonist to the human GAL3 receptor at concentrations less than 1 μM, preferably less than 100 nM. Examples of solvents include, but are not limited to, DMSO, ethanol, N,N-dimethylacetamide, or water. For indolones, the preferred solvent is 3% DMSO (final concentration in the assay). For pyrimidines, the preferred solvent is 1% ethanol/0.09% polypuronic acid F-127 (final concentration in the assay). For any other type of compounds, the preferred solvent is the solvent which permits the measurement of binding affinity of a GAL3 antagonist at the lowest concentration. Once a suitable solvent is ascertained for the binding assay of the human GAL3 receptor, the same solvent is used in assays to determine the binding affinity for instance, at the GAL1 receptor.
(§3) The binding properties of the pyrimidines of the present invention were evaluated at the cloned human galanin receptors, GAL1, GAL2, and GAL3, using protocols described herein.
(§4) The binding properties of the indolones of the present invention were evaluated at the cloned human galanin receptors, GAL1, GAL2, and GAL3, using protocols described herein.
(§5) LM(tk-) cells were stably transfected with the human GAL1 or GAL3 receptor. CHO cells were stably transfected with the human GAL2 receptor.
(§6) cDNAs for the human and rat GAL1, and human and rat GAL3 receptors were transfected with a G-418 resistant gene into the mouse fibroblast LM(tk-) cell line by a calcium phosphate transfection method (Cullen, 1967). Stably transfected cells were selected with G-418. Human and rat GAL2 receptors were similarly transfected into CHO cells.
(§7) Membranes were harvested from stably transfected LM(tk-) cells. Adherent cells were washed twice in ice-cold phosphate buffered saline (138 mM NaCl, 8.1 mM Na2HPO4, 2.5 mM KCl, 1.2 mM KH2PO4, 0.9 mM CaCl2, 0.5 mM MgCl2, pH 7.4) and lysed by sonication in ice-cold sonication buffer (20 mM Tris-HCl, 5 mM EDTA, pH 7.7). Large particles and debris were cleared by low speed centrifugation (200×g, 5 min, 4° C.). Membranes were collected from the supernatant fraction by centrifugation (32,000×g, 18 min, 4° C.), washed with ice-cold hypotonic buffer, and collected again by centrifugation (32,000×g, 18 min, 4° C.). The final membrane pellet was resuspended by sonication into a small volume of ice-cold binding buffer (−1 ml for every 5 plates: 10 mM NaCl, 20 mM HEPES, 0.22 mM KH2PO4, 1.26 mM CaCl2, 0.81 mM MgSO4, pH 7.4). Protein concentration was measured by the Bradford method (Bradford, 1976) using Bio-Rad Reagent, with bovine serum albumin as a standard. Membranes were held on ice for up to one hour and used fresh, or flash frozen and stored in liquid nitrogen. Membranes were prepared similarly from CHO cells.
(§8) Galanin Receptors: Binding assays were performed according to the following published methods: human GAL3 (PCT International Publication No. WO 98/15570), human GAL1 (PCT International Publication No. WO 95/2260) human GAL2 (PCT International Publication No. WO 97/26853).
as §1

The target in the next assay is T3, human 5HT6 receptor (Homo sapiens, UniProt P50406).
T3 construct: expressed in transfected cells
T3 sequence (P50406 whole entry): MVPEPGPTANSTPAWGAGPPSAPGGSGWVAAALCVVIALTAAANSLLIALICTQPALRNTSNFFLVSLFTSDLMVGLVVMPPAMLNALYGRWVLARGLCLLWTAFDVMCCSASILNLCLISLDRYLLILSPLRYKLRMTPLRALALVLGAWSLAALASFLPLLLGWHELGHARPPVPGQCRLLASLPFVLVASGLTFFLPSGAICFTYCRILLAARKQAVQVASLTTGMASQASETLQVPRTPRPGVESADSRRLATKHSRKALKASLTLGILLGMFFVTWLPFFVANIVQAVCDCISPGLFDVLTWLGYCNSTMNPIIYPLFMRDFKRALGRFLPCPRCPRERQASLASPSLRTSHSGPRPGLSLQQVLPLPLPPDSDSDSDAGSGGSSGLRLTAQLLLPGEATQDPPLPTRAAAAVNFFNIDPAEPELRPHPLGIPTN
Nature of the assay: Radioligand binding at 5-HT6 receptor. The following applies: read-out: h5HT6 Ki. As for the experimental part: Other 5-HT ReceDtors: Other serotonin receptor binding assays were performed according to published methods: rat 5HT2c receptor (Julius et al., 1988); and 5-HT6 (Monsma, et al., 1993). The binding assays using the 5-HT4 receptor were performed according to the procedures described in U.S. Pat. No. 5,766,879, the disclosure of which is hereby incorporated by reference in its entirety into this application.
as §1

For another assay, the target named is T4, human GAL2 receptor (Homo sapiens, UniProt O43603).
T4 construct: expressed in transfected cells
T4 sequence (O43603 1-387): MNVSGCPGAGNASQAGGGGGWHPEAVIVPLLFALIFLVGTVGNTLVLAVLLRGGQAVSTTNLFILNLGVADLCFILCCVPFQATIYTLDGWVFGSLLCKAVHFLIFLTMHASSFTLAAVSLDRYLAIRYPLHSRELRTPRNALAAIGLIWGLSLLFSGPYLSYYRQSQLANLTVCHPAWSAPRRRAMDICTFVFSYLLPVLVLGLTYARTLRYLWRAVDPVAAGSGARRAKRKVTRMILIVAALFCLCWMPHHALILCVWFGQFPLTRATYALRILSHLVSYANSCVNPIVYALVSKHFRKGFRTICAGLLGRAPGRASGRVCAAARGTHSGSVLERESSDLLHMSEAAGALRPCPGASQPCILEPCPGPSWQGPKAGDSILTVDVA
Nature of the assay: Radioligand binding at cloned human GAL2 receptor. Conditions: indolones, Table 4, read-out: Ki (nM) GalR 2. As for the experimental part:
as §2, §3, §4, §5, §6, §7, §8, §1

pKi: −log10 of the molar value.

T1 sequence (P28222 whole entry): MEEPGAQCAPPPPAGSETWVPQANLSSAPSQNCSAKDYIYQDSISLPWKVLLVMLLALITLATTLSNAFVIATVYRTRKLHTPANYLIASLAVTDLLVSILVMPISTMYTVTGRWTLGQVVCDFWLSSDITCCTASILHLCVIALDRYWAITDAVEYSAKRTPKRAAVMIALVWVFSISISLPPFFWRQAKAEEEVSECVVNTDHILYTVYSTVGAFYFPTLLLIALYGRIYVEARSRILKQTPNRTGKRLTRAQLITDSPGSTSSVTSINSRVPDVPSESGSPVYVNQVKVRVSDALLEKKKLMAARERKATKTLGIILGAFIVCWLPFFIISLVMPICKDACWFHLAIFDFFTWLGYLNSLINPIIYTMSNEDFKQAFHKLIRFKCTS

Usually pKi stands for −log10 of the Ki, conventionally taken in molar units. In general, Ki refers to a measure of affinity in units of concentration, obtained from inhibition or displacement. Turning to `O=C1C(=Nc2cccc(C(F)(F)F)c2)c2ccccc2N1c1ccccc1` [Example 92, 1-PHENYL-3-[[3-(TRIFLUOROMETHYL)PHENYL]IMINO]-1,3-DIHYDRO-2H-INDOL-2-ONE], the results for the pKi on human 5HT1B receptor and on human 5HT6 receptor were 4.95 and under 4.30, respectively. Besides, the Ki at human GAL1 receptor and on human GAL2 receptor was over 10000 nM in each case.
